According to patent publication US8987314B2, “Amide, urea or sulfone amide linked benzothiazole inhibitors of endothelial lipase” (Bristol-Myers Squibb Company, priority 2012, dated 2015):

How the values were obtained:
hepatic lipase (HL) = hepatic lipase (HL) (Homo sapiens (Human), UniProt P11150); test: HL assay: hepatic lipase activity with fluorescent substrate A10070 in DMPG vesicles; format: biochemical
How it was run: (§1)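 Vesicles prepared: A10070 dried with DMPG, resuspended in HEPES pH 8.0/NaCl/EDTA, sonicated on ice. Enzyme incubated with compound 30 min at 37° C. Reaction started with 1:10 diluted vesicles. Fluorescence (490/530 nm) followed 60 min; slope from 300–900 secs gives rate.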

Endothelial lipase (EL) = Endothelial lipase (EL) (Homo sapiens (Human), UniProt Q9Y5X9); test: EL assay: endothelial lipase activity with fluorescent substrate A10070 in DMPG vesicles; format: biochemical
Endothelial lipase (EL), sequence (Q9Y5X9 21-500): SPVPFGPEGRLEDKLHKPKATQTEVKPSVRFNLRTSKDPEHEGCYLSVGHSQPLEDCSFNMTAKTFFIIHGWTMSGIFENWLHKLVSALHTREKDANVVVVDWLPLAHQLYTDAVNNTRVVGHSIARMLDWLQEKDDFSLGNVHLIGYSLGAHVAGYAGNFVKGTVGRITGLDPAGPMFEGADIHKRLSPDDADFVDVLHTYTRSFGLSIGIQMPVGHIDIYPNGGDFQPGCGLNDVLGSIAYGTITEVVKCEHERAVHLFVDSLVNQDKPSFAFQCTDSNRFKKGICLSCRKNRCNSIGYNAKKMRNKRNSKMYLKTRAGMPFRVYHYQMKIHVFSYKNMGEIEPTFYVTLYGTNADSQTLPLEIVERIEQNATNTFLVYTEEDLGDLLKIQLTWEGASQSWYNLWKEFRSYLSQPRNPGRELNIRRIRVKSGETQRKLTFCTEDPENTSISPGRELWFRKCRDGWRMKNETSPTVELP
How it was run: as §1

hepatic lipase (HL), sequence (P11150 23-499, species assumed): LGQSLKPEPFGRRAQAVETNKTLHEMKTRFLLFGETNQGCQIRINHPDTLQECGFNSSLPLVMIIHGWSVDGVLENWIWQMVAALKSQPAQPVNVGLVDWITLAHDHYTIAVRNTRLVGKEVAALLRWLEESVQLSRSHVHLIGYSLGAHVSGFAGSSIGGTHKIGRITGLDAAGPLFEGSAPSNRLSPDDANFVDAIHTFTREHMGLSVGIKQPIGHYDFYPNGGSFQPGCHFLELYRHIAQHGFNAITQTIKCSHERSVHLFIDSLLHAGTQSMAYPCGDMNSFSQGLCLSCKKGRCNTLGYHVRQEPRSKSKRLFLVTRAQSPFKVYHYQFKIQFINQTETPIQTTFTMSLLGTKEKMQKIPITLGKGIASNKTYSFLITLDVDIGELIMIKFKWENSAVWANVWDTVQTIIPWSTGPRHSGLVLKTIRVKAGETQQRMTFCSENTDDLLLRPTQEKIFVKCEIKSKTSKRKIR

Structure (SMILES)	IC50 (hepatic lipase (HL)) [nM]	IC50 (Endothelial lipase (EL)) [nM]
COCCS(=O)(=O)C(C(=O)NCc1nnc(C)o1)c1nc2cc(F)c(-c3ccc(C(=O)N4CC(C)(O)C4)cc3)cc2s1 (stereo not shown) [Example B260, 2-{5-fluoro-6-[4-(3-hydroxy-3-methyl-azetidine-1-carbonyl)phen-yl]-1,3-benzothiazol-2-yl}-2-(2-methoxyethane-sulfonyl)-N-[(5-methyl-1,3,4-oxadiazol-2-yl)methyl]acetamide]	1340	67
COCCS(=O)(=O)C(C(=O)NCc1nnc(C)o1)c1nc2cc(F)c(-c3ccc(C(=O)N4CCCC4)c(F)c3)cc2s1 (stereo not shown) [Example B261, 2-{5-fluoro-6-[3-fluoro-4-(pyrrolidine-1-carbonyl)phen-yl]-1,3-benzothiazol-2-yl}-2-(2-methoxy-ethanesulfonyl)-N-[(5-methyl-1,3,4-oxadiazol-2-yl)methyl]acetamide]	765	101
COCCS(=O)(=O)C(C(=O)NCc1nnc(C)o1)c1nc2cc(F)c(-c3ccc(C(=O)N4CCCC4)cc3)cc2s1 (stereo not shown) [Example B262, 2-{5-fluoro-6-[4-(pyrrolidine-1-carbonyl)phen-yl]-1,3-benzothiazol-2-yl}-2-(2-methoxy-ethanesulfonyl)-N-[(5-methyl-1,3,4-oxadiazol-2-yl)methyl]acetamide]	374	102
Cc1nnc(CNC(=O)C(c2nc3ccc(-c4ccc(C(=O)N5CC(C)(O)C5)cc4)cc3s2)S(C)(=O)=O)o1 (stereo not shown) [Example B263, 2-{6-[4-(3-hydroxy-3-methylazetidine-1-carbonyl)phenyl]-1,3-benzothiazol-2-yl}-2-methanesulfonyl-N-[(5-methyl-1,3,4-oxadiazol-2-yl)methyl]acetamide]	10000	77
COCCNC(=O)c1ccc(-c2ccc3nc(C(C(=O)NCc4nnc(C)o4)S(=O)(=O)CCOC)sc3c2)cc1 (stereo not shown) [Example B264, 4-{2-[(2-methoxyethane-sulfonyl)({[(5-methyl-1,3,4-oxadiazol-2-yl)meth-yl]carbamoyl})meth-yl]-1,3-benzothiazol-6-yl}-N-(2-methoxyethyl)ben-zamide]	184	93
COCCS(=O)(=O)C(C(=O)NCc1nnc(C)o1)c1nc2ccc(-c3ccc(C(=O)N4CC(C)(O)C4)cc3)cc2s1 (stereo not shown) [Example B265, 2-{6-[4-(3-hydroxy-3-methylazetidine-1-carbonyl)phenyl]-1,3-benzothiazol-2-yl}-2-(2-methoxyethanesulfonyl)-N-[(5-methyl-1,3,4-oxadiazol-2-yl)methyl]a-cetamide]	634	59
COCCNC(=O)c1ccc(-c2cc3sc(C(C(=O)NCc4nnc(C)o4)S(C)(=O)=O)nc3cc2F)cc1 (stereo not shown) [Example B266, 4-{5-fluoro-2-[methanesulfonyl({[(5-methyl-1,3,4-oxadiazol-2-yl)methyl]carbamoyl})meth-yl]-1,3-benzothiazol-6-yl}-N-(2-methoxyethyl)ben-zamide]	948	39.1
COCCNC(=O)c1ccc(-c2ccc3nc(C(C(=O)NCCS(N)(=O)=O)S(=O)(=O)C(C)C)sc3c2)cc1 (stereo not shown) [Example B267, N-(2-methoxyethyl)-4-{2-[(propane-2-sulfonyl)[(2-sul-famoylethyl)carbamoyl]meth-yl]-1,3-benzothiazol-6-yl}benzamide]	289	44.5
CC(C)S(=O)(=O)C(C(=O)NCCS(N)(=O)=O)c1nc2cc(C(F)(F)F)c(-c3ccc(C(=O)N4CCOCC4)cc3)cc2s1 (stereo not shown) [Example B268, 2-{6-[4-(morpholine-4-carbonyl)phenyl]-5-(trifluoromethyl)-1,3-benzothiazol-2-yl}-2-(propane-2-sulfonyl)-N-(2-sulfamoylethyl)acetamide]	406	9.2
COCCNC(=O)c1ccc(-c2cc3sc(C(C(=O)NCCS(N)(=O)=O)S(=O)(=O)C(C)C)nc3cc2C(F)(F)F)cc1 (stereo not shown) [Example B269, N-(2-methoxyethyl)-4-{2-[(propane-2-sulfonyl)[(2-sul-famoylethyl)carbamoyl]meth-yl]-5-(trifluoro-methyl)-1,3-benzothiazol-6-yl}benzamide]	312	10
COCCS(=O)(=O)NS(=O)(=O)c1cccc(CNC(=O)C(c2nc3cc(-c4ccccc4)ccc3s2)S(=O)(=O)CCOC)c1 (stereo not shown) [Example B270, N-({3-[(2-methoxyethane-sulfonamido)sulfonyl]phen-yl}methyl)-2-(2-methoxyethanesulfonyl)-2-(5-phenyl-1,3-benzothiazol-2-yl)a-cetamide]	212	205
CC(C)S(=O)(=O)C(C(=O)NCCS(N)(=O)=O)c1nc2ccc(-c3cccc(C(=O)N(C)C)c3)cc2s1 (stereo not shown) [Example B272, N,N-dimethyl-3-{2-[(propane-2-sulfonyl)[(2-sul-famoylethyl)carbamoyl]meth-yl]-1,3-benzothiazol-6-yl}benzamide]	612	35.3
Cc1cc2nc(C(C(=O)NCCS(N)(=O)=O)S(=O)(=O)Cc3ccccc3)sc2cc1-c1ccc(C(=O)OC(C)(C)C)cc1 (stereo not shown) [Example B273, tert-butyl 4-(5-methyl-2-{phenylmethanesulfonyl[(2-sulfamoylethyl)car-bamoyl]methyl}-1,3-benzothiazol-6-yl)benzoate]	3	1.4
Cc1cc2nc(C(C(=O)NCCS(N)(=O)=O)S(C)(=O)=O)sc2cc1-c1ccc(C(=O)OC(C)(C)C)cc1 (stereo not shown) [Example B274, tert-butyl 4-(2-{methanesulfonyl[(2-sul-famoylethyl)carbamoyl]meth-yl}-5-methyl-1,3-benzothiazol-6-yl)benzoate]	5.1	1.7
CS(=O)(=O)C(C(=O)NCc1ccccc1S(N)(=O)=O)c1nc2ccc(-c3ccc(N4CCCCC4)cc3)cc2s1 (stereo not shown) [Example B275, 2-methanesulfonyl-2-{6-[4-(piperidin-1-yl)phenyl]-1,3-benzothiazol-2-yl}-N-[(2-sulfamoylphenyl)meth-yl]acetamide]	218	173
CC(C)(C)OC(=O)c1ccc(-c2ccc3nc(C(C(=O)NCCS(N)(=O)=O)S(=O)(=O)Cc4ccccc4)sc3c2)cc1 (stereo not shown) [Example B276, tert-butyl 4-(2-{phenylmethanesulfonyl[(2-sulfamoylethyl)car-bamoyl]methyl)-1,3-benzothiazol-6-yl)benzoate]	0.8	1.1
NS(=O)(=O)c1cccc(CNC(=O)C(c2nc3ccc(-c4ccc(C(=O)N5CCCC5)cc4)cc3s2)S(=O)(=O)Cc2ccccc2)c1 (stereo not shown) [Example B277, 2-phenylmethanesulfonyl-2-{6-[4-(pyrrolidine-1-carbonyl)phenyl]-1,3-benzothiazol-2-yl}-N-[(3-sulfamoylphenyl)methyl]a-cetamide]	84.9	191
NS(=O)(=O)c1cccc(CNC(=O)C(c2nc3ccc(-c4ccncc4Cl)cc3s2)S(=O)(=O)Cc2ccccc2)c1 (stereo not shown) [Example B278, 2-[6-(3-chloropyridin-4-yl)-1,3-benzothiazol-2-yl]-2-phenylmethanesulfonyl-N-[(3-sulfamoylphen-yl)methyl]acetamide]	355	158
Cc1nnc(CNC(=O)C(c2nc3ccc(-c4ccc(C(=O)OC(C)(C)C)cc4)cc3s2)S(C)(=O)=O)s1 (stereo not shown) [Example B279, tert-butyl 4-{2-[methanesulfonyl({[(5-methyl-1,3,4-thiadiazol-2-yl)methyl]carbamoyl})meth-yl]-1,3-benzothiazol-6-yl}benzoate]	2.8	15.6
CC(C)S(=O)(=O)C(C(=O)NCCS(N)(=O)=O)c1nc2c(F)cc(-c3cccc(C(=O)OC(C)(C)C)c3)cc2s1 (stereo not shown) [Example B280, tert-butyl 3-{4-fluoro-2-[(propane-2-sulfonyl)[(2-sul-famoylethyl)carbamoyl]meth-yl]-1,3-benzothiazol-6-yl}benzoate]	2.9	4.8
COCCS(=O)(=O)C(C(=O)NCCS(N)(=O)=O)c1nc2ccc(-c3ccc(F)nc3)cc2s1 (stereo not shown) [Example B281, 2-[6-(6-fluoropyridin-3-yl)-1,3-benzothiazol-2-yl]-2-(2-methoxyethane-sulfonyl)-N-(2-sulfamoylethyl)acetamide]	110	17.9
COCCNC(=O)c1ccc(-c2ccc3nc(C(C(=O)NCCS(N)(=O)=O)S(=O)(=O)Cc4ccc(OC(F)(F)F)cc4)sc3c2)cc1 (stereo not shown) [Example B282, N-(2-methoxyethyl)-4-(2-{[(2-sulfamoylethyl)car-bamoyl][4-(trifluoromethoxy)phen-yl]methanesulfonylmethyl}-1,3-benzothiazol-6-yl)ben-zamide]	306	2.6
NS(=O)(=O)CCNC(=O)C(c1nc2ccc(-c3ccc(C(=O)N4CCOCC4)cc3)cc2s1)S(=O)(=O)CC1CC1 (stereo not shown) [Example B283, 2-cyclopropylmethane-sulfonyl-2-{6-[4-(morpholine-4-carbonyl)phenyl]-1,3-benzothiazol-2-yl}-N-(2-sulfamoylethyl)acetamide]	365	53.8
NS(=O)(=O)CCNC(=O)C(c1nc2ccc(-c3ccccc3)cc2s1)S(=O)(=O)CCC(F)(F)F (stereo not shown) [Example B284, 2-(6-phenyl-1,3-benzothiazol-2-yl)-N-(2-sulfamoylethyl)-2-(3,3,3-trifluoropropanesulfonyl)a-cetamide]	2.6	6.8
COCc1ccc(-c2ccc3nc(C(C(=O)NCCS(N)(=O)=O)S(=O)(=O)Cc4ccc(OC(F)(F)F)cc4)sc3c2)cc1 (stereo not shown) [Example B285, 2-{6-[4-(methoxymethyl)phenyl]-1,3-benzothiazol-2-yl}-N-(2-sulfamoylethyl)-2-{[4-(trifluoromethoxy)phen-yl]methanesulfonyl}a-cetamide]	126	5.4
COCc1ccc(-c2ccc3nc(C(C(=O)NCCS(N)(=O)=O)S(=O)(=O)CC4CC4)sc3c2)cc1 (stereo not shown) [Example B286, 2-cyclopropylmethane-sulfonyl-2-{6-[4-(methoxymethyl)phenyl]-1,3-benzothiazol-2-yl}-N-(2-sulfamoylethyl)a-cetamide]	55.5	3.9
